Measured values from article PMC8406304, “Inhibiting Type VI Secretion System Activity with a Biomimetic Peptide Designed To Target the Baseplate Wedge Complex” (mBio, 2021).
Entries after “also recorded” stand apart in the source; their conditions may differ.

Columns and labels:
[1] = system: TssK; assay: Isothermal titration calorimetry (ITC), TssK-WT; format: binding, enteroaggregative Escherichia coli (EAEC); conditions: 25°C
Method: (§1) To evaluate the direct interaction between the BCP and its target TssK, we performed isothermal titration calorimetry (ITC) experiments. The wild-type BCP and TssK interact with an observable affinity (KD) of 60 μM (Fig. 5A).
(§2) The working buffer for both proteins and peptide was 50 mM HEPES (pH 7.0), 150 mM NaCl to avoid buffer mismatch. The experiments were performed at 25°C using the MicroCal PEAQ-ITC instrument (Malvern Panalyticals, Malvern, UK) in duplicate with 19 injections, first with an initial injection of 0.4 μl followed by 18 injections of 2 μl. Two assays were performed. In the first, 25 μM WT TssK ligand was in the cell and 1 mM WT BCP analyte was in the syringe. In the second, 25 μM TssK L14A ligand was in the cell and 1 mM WT BCP analyte was in the syringe. The reaction was performed with a constant stirring speed of 750 rpm; each injection lasted for 4 s with a 150-s space between injections. A constant heat control (offset) was removed from the raw data to account for heat dilution before integration. The data were fitted using the One Set of Sites model in the PEAQ-ITC analysis software.

[2] = system: TssK-L14A; assay: Isothermal titration calorimetry (ITC), TssK-L14A variant; format: binding, enteroaggregative Escherichia coli (EAEC); conditions: 25 μM TssK-L14A, 1 mM wild-type BCP, 50 mM HEPES pH 7.0, 150 mM NaCl, 25°C
Method: as §1, §2

[3] = NMR of the free cyclic peptide; format: physicochemical; conditions: 1H-NOESY, 1.8 mM peptide, 50 mM KPO4 pH 6.9, 150 mM NaCl, 300 K
Method: All NMR experiments were recorded at 300 K on a Bruker Avance-II 600 MHz spectrometer equipped with a cryoprobe at the IMM (Institut de Microbiologie de la Mediterranée) NMR platform. The 450-μl peptide sample tube was prepared at 1.8 mM in KPO4 buffer (50 mM KPO4 [pH 6.9], 150 mM NaCl) complemented with 30 μl D2O. 1D ^1H-^1H-TOCSY, ^1H-NOESY, and ^1H-^15N HSQC spectra (F2 = 2048; F1 = 128; NS = 384) (NS is the number of scans [accumulation] for the experiment; F2 is the sweep width; F1 is the Fourier number that defines the 2D spectrum dimensions and its digital resolution) were recorded using default pulse sequences as provided by the manufacturer. For the peptide-TssK interaction experiments, 200 μl of a 410 μM stock of TssK was added to the same sample tube (1.2 mM peptide and 140 μM TssK [final concentration]), and all NMR spectra were recorded with the addition of longer ^1H-^15N HSQC spectrometry (NS = 1,024). All spectra were transformed and the figures were generated using Bruker Topspin 4.0.9.

[4] = system: EAEC T6SS+ killing of E. coli K-12 W3110 prey; assay: Antibacterial growth competition assay (EAEC attacker vs E. coli prey); format: cell-based, enteroaggregative Escherichia coli (EAEC); conditions: 1 mM BCP added directly to competition mixture, 4 h at 37°C, CFU enumeration
Method: Based on the BCP ability to bind to TssK and to limit the in vitro binding of the TssFGE wedge components onto TssK, we evaluated its T6SS interference potential on bacteria. We set up a competition experiment between EAEC (predator, T6SS^+) and E. coli (prey, T6SS^−) strains (see Materials and Methods) in the presence or absence of the BCP. Incubation of cells with 1 mM BCP is accompanied by a drastic decrease of prey cells number, similar to what is observed in the absence of BCP. […] To test this hypothesis, we developed a protocol favoring BCP entry into bacterial cells without any electroporation or chemical steps likely to impair T6SS activity (see Materials and Methods).
The antibacterial growth competition assay was performed as previously described ([100]). Wild-type E. coli K-12 strain W3110 bearing the pUA66-rrnB plasmid (conferring kanamycin resistance and constitutive GFP fluorescence, with the gfp gene under the control of the ribosomal rrnB promoter) ([101]) was used as the recipient. Attacker and recipient cells were grown for 16 h in LB medium, diluted in SIM medium to allow maximal expression of the sci-1 gene cluster. Once the culture reached an A600 of ∼0.8, cells were harvested and normalized, and drops of the mixture were spotted in triplicate onto a prewarmed dry SIM agar plate with or without the addition of 0.5 mg ml^−1 arabinose. […]

[5] = system: EAEC; assay: Bacterial growth / toxicity of the peptide; format: cell-based, enteroaggregative Escherichia coli (EAEC); conditions: up to 1 mM, EAEC TssK-GFP in SIM medium, OD at 600 nm; biological triplicates

With “SRPVMG-SRPVMG-SRPVMG (head to tail) [BCP, biomimetic cyclic peptide SRPVMG-SRPVMG-SRPVMG mimicking TssG foot 1]” the “ITC binding signature: enthalpy / ΔG” value ([1]; ITC signature plot, TssK-WT with BCP, pH 7.0) was “driven by a favorable enthalpy; also recorded: enthalpy-driven interaction with a favorable ΔG”, the Kd ([1]; ITC, 25 μM TssK-WT in cell, 1 mM BCP in syringe, 50 mM HEPES pH 7.0, 150 mM NaCl, duplicate, One Set of Sites fit, read-out: observable affinity (KD)) was 60 µM and the “ITC binding signal with TssK-L14A” value [2] was “None of these conditions led to a detectable ITC binding signal; also recorded: lack of binding”. For the same substance, the “3D folding / internal structure of free peptide” value [3] was “absence of an internal structure of the free peptide”, the “effect on killing ability of EAEC (prey survival)” value [4] was “does not affect the killing ability of EAEC” and the toxicity for bacteria [5] was “not toxic for bacteria up to 1 mM; also recorded: no impact on the growth of EAEC”.
